Among the data in ChEMBL document CHEMBL1629482, “Synthesis and antitubercular activity of new mefloquine-oxazolidine derivatives” (Eur J Med Chem, 2010) are viability and MIC values, retold here.

Series [1] can be described thus: Cytotoxicity against mouse macrophage assessed as cell viability at 25 uM after 18 hrs by MTT assay. In kind it is cell-based. The settings on record: mouse macrophages, read-out: Activity. Background: Formazan colour is commonly taken as a measure of viable cells.
Series [2] can be described thus: Cytotoxicity against mouse macrophage assessed as cell viability at 12.5 uM after 18 hrs by MTT assay. In kind it is cell-based. To be noted: mouse macrophages, read-out: Activity.
Series [3] is described as follows: Cytotoxicity against mouse macrophage assessed as cell viability at 50 uM after 18 hrs by MTT assay. In kind it is cell-based. The settings on record: mouse macrophages, read-out: Activity.
The test system of series [4] is Mycobacterium tuberculosis. Description: Antitubercular activity against Mycobacterium tuberculosis ATCC 27294 by Alamar blue assay. Format: functional. (Resazurin is reduced to fluorescent resorufin, in cell work by metabolically active cells.)
The subject of the next series is Mycobacterium avium. The series is described as follows: Antitubercular activity against Mycobacterium avium by Broth micro dilution method. Format: functional.
In series [5] the test system is Mycobacterium tuberculosis. The series is described as follows: Antitubercular activity against Mycobacterium tuberculosis. In kind it is functional.

Values after ≈ are worked out from the molar mass of the structure shown. Bounds are passed on as bounds.

One may read the MIC as the smallest concentration in the dilution series that meets the test's criterion for growth inhibition. For `O=[N+]([O-])c1cccc(C2O[C@@H](c3cc(C(F)(F)F)nc4c(C(F)(F)F)cccc34)[C@H]3CCCCN23)c1` (stereo partly specified), the viability at 18 h, 25 µM in series [1] is 100%. Further, the viability at 18 h, 12.5 µM in series [2] was found to be 100%. Further, the viability at 18 h, 50 µM in series [3] came to 100%. For the same molecule, the MIC in series [4] was more than 250 µM.
As to `FC(F)(F)c1cc([C@H]2O[C@@H](c3ccccc3)N3CCCC[C@@H]23)c2cccc(C(F)(F)F)c2n1`, in series [1], the viability at 18 h, 25 µM is 96%. Moreover, the viability at 18 h, 12.5 µM in series [2] turned out to be 100%. Also, the viability at 18 h, 50 µM in series [3] worked out at 95%. The same molecule yielded an MIC in series [4] of 26.8 µM (≈ 12.5 µg/mL).
The corresponding values for `O=[N+]([O-])c1ccccc1C1O[C@@H](c2cc(C(F)(F)F)nc3c(C(F)(F)F)cccc23)[C@H]2CCCCN12` (mixture of isomers) are 100%, 100%, 100% and more than 250 µM.
Regarding `COc1cccc(C2O[C@@H](c3cc(C(F)(F)F)nc4c(C(F)(F)F)cccc34)[C@H]3CCCCN23)c1` (mixture of isomers), the viability at 18 h, 25 µM in series [1] amounted to 80%. Besides, the viability at 18 h, 12.5 µM in series [2] was found to be 100%. Further, in series [3], the viability at 18 h, 50 µM is 80%. In series [4], this molecule came in with an MIC of 25.2 µM.
With `COc1ccc(C2O[C@@H](c3cc(C(F)(F)F)nc4c(C(F)(F)F)cccc34)[C@H]3CCCCN23)cc1` (mixture of isomers), the viability at 18 h, 25 µM in series [1] was determined as 100%. Also, the viability at 18 h, 12.5 µM in series [2] was determined as 100%. Also, the viability at 18 h, 50 µM in series [3] worked out at 100%. The MIC in series [4] worked out at 25.2 µM.
Consider `O=[N+]([O-])c1ccc(C2O[C@@H](c3cc(C(F)(F)F)nc4c(C(F)(F)F)cccc34)[C@H]3CCCCN23)cc1` (mixture of isomers), for which the viability at 18 h, 25 µM in series [1] amounted to 100%. In addition, the viability at 18 h, 12.5 µM in series [2] is 100%. Moreover, the viability at 18 h, 50 µM in series [3] came to 100%. Further, the MIC in series [4] was more than 250 µM.
For the molecule `FC(F)(F)c1cc([C@@H]2OC(c3ccccc3Cl)N3CCCC[C@H]23)c2cccc(C(F)(F)F)c2n1` (mixture of isomers), the viability at 18 h, 25 µM in series [1] was determined as 100%. The viability at 18 h, 12.5 µM in series [2] came to 100%. In addition, in series [3], the viability at 18 h, 50 µM is 100%. The molecule further returned an MIC in series [4] of more than 250 µM.
As for `FC(F)(F)c1cc([C@@H]2OC(c3cccc(Cl)c3)N3CCCC[C@H]23)c2cccc(C(F)(F)F)c2n1` (mixture of isomers), the viability at 18 h, 25 µM in series [1] came to 100%. Besides, the viability at 18 h, 12.5 µM in series [2] was determined as 100%. Moreover, the viability at 18 h, 50 µM in series [3] amounted to 90%. Besides, the MIC in series [4] is more than 250 µM.
Consider `FC(F)(F)c1cc([C@@H]2OC(c3ccc(Cl)cc3)N3CCCC[C@H]23)c2cccc(C(F)(F)F)c2n1` (mixture of isomers), for which the viability at 18 h, 25 µM in series [1] worked out at 100%. Further, the viability at 18 h, 12.5 µM in series [2] came out at 100%. In series [3], the viability at 18 h, 50 µM was determined as 100%. In addition, the MIC in series [4] was more than 250 µM.
With `FC(F)(F)c1cc([C@@H]2OC(c3cccc(Br)c3)N3CCCC[C@H]23)c2cccc(C(F)(F)F)c2n1` (mixture of isomers), in series [1], the viability at 18 h, 25 µM amounted to 85%. Further, in series [2], the viability at 18 h, 12.5 µM amounted to 100%. For the same molecule, the viability at 18 h, 50 µM in series [3] was 85%. In series [4], the MIC was more than 250 µM.
For `FC(F)(F)c1cc([C@@H]2OC(c3ccc(Br)cc3)N3CCCC[C@H]23)c2cccc(C(F)(F)F)c2n1` (mixture of isomers), the viability at 18 h, 25 µM in series [1] worked out at 100%. Moreover, the viability at 18 h, 12.5 µM in series [2] was 100%. The viability at 18 h, 50 µM in series [3] is 100%. Further, the MIC in series [4] was more than 250 µM.
For the molecule `Fc1ccccc1C1O[C@@H](c2cc(C(F)(F)F)nc3c(C(F)(F)F)cccc23)[C@H]2CCCCN12` (mixture of isomers), the viability at 18 h, 25 µM in series [1] was determined as 100%. Further, the viability at 18 h, 12.5 µM in series [2] turned out to be 100%. Also, the viability at 18 h, 50 µM in series [3] was 100%. Moreover, the MIC in series [4] is more than 250 µM.
On to `Fc1ccc(C2O[C@@H](c3cc(C(F)(F)F)nc4c(C(F)(F)F)cccc34)[C@H]3CCCCN23)cc1` (mixture of isomers), for which the viability at 18 h, 25 µM in series [1] worked out at 84%. In addition, in series [2], the viability at 18 h, 12.5 µM is 93%. For the same molecule, in series [3], the viability at 18 h, 50 µM turned out to be 82%. The same molecule had an MIC in series [4] of 25.8 µM.
In the case of `Oc1ccccc1C1O[C@@H](c2cc(C(F)(F)F)nc3c(C(F)(F)F)cccc23)[C@H]2CCCCN12` (mixture of isomers), the viability at 18 h, 25 µM in series [1] worked out at 85%. Further, the viability at 18 h, 12.5 µM in series [2] was determined as 100%. Also, the viability at 18 h, 50 µM in series [3] came out at 85%. The molecule further showed an MIC in series [4] of 25.9 µM.
As for `Oc1ccc(C2O[C@@H](c3cc(C(F)(F)F)nc4c(C(F)(F)F)cccc34)[C@H]3CCCCN23)cc1` (mixture of isomers), in series [1], the viability at 18 h, 25 µM is 80%. Further, the viability at 18 h, 12.5 µM in series [2] amounted to 100%. In addition, the viability at 18 h, 50 µM in series [3] turned out to be 80%. Moreover, 25.9 µM was the least that counted as inhibitory in series [4] (MIC).
Take `COc1ccccc1C1O[C@@H](c2cc(C(F)(F)F)nc3c(C(F)(F)F)cccc23)[C@H]2CCCCN12` (mixture of isomers): the viability at 18 h, 25 µM in series [1] came to 100%. The viability at 18 h, 12.5 µM in series [2] is 100%. Besides, in series [3], the viability at 18 h, 50 µM amounted to 100%. The molecule also had an MIC in series [4] of 12.6 µM.
With `CC[C@@H](CO)NCCN[C@@H](CC)CO` [ETHAMBUTOL], inhibition of growth in series [4] (MIC) required 15.9 µM (≈ 3.25 µg/mL).
On to `OC(c1cc(C(F)(F)F)nc2c(C(F)(F)F)cccc12)C1CCCCN1` (stereo unspecified) [MEFLOQUINE], for which, in series [1], the viability at 18 h, 25 µM stood at 77%. Moreover, the MIC turned out to be 21.1 µM (≈ 7.98 µg/mL) against Mycobacterium avium, 21.1 µM (≈ 7.98 µg/mL) in series [5] and 33 µM (≈ 12.5 µg/mL) in series [4]. Further, in series [2], the viability at 18 h, 12.5 µM is 81%. Moreover, the viability at 18 h, 50 µM in series [3] was 76%.
